The Kinase Knowledgebase extract (Sharma et al. 2016)

Assays:
PIK3CA (human) = PIK3CA (human) (UniProt P42336); experiment: Enzyme Assay
PIK3CG (human) = PIK3CG (human) (UniProt P48736); experiment: Inhibition of PIK3CG Kinase Activity
PIK3CG (human), sequence (P48736 whole entry, looked up): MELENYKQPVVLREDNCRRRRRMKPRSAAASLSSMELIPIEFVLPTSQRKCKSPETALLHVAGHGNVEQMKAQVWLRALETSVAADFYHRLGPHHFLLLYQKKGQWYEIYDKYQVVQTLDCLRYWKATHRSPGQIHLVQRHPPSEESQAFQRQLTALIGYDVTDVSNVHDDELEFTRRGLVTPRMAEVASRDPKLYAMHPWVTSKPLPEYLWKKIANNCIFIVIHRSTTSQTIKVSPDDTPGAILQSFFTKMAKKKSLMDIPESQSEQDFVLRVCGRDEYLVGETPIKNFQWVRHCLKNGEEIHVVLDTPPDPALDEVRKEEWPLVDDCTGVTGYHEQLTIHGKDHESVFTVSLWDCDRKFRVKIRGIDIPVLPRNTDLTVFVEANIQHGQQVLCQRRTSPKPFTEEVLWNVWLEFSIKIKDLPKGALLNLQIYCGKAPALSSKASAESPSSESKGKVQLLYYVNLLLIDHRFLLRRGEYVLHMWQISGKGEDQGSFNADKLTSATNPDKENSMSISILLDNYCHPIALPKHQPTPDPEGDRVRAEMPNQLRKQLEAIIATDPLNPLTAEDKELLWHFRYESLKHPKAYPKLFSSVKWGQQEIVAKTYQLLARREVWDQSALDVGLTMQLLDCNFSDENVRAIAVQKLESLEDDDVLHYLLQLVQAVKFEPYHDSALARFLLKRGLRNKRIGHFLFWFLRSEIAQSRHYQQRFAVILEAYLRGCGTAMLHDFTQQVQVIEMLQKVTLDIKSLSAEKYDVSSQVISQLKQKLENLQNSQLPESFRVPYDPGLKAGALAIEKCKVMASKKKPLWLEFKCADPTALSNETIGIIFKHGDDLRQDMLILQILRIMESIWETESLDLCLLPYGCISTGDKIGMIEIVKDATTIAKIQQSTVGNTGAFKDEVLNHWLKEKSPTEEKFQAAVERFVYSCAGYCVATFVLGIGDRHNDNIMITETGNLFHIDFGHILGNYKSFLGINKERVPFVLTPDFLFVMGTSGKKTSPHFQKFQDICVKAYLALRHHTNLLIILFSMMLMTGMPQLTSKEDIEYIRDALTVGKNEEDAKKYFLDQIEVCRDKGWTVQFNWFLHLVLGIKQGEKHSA

PIK3CA (human), sequence (P42336 whole entry, looked up): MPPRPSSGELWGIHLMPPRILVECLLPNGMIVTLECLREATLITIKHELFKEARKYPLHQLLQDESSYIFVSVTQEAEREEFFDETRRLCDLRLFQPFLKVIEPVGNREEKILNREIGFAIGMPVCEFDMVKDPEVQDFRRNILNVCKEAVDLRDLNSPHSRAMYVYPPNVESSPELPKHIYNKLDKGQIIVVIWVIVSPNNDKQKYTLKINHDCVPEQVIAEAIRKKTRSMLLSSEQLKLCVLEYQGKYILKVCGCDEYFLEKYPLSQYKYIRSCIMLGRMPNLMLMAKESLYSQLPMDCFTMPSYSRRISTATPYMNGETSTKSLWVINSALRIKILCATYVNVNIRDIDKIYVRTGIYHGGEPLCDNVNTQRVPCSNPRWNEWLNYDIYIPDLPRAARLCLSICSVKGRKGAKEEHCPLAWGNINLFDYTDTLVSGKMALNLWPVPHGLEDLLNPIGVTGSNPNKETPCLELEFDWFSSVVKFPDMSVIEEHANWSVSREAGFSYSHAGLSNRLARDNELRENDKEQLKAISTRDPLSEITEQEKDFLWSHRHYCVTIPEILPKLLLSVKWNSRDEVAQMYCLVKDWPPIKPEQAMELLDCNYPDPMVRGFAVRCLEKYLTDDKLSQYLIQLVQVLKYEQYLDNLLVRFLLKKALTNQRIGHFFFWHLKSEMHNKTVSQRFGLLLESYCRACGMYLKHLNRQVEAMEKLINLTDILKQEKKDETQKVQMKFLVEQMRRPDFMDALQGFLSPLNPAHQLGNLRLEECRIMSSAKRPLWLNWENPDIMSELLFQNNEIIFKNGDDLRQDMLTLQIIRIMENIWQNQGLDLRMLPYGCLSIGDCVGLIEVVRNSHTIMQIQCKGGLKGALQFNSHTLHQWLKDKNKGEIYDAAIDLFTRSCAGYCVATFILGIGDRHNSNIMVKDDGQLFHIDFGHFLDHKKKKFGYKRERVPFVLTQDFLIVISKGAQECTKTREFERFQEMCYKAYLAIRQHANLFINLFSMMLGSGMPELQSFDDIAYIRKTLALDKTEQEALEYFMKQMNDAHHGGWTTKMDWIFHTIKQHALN

IC50 (PIK3CA (human)) [nM] | IC50 (PIK3CG (human)) [nM] | Structure (SMILES)
18 | 149 | Cn1cc(/C=C2\Oc3cc(O)cc(O)c3C2=O)c2c(-c3cncnc3)ccnc21
289 | 2130 | Cn1cc(/C=C2\Oc3ccc(NC(=O)NC4CC4)cc3C2=O)c2c(N3CC4CCC(C3)O4)ccnc21
747 | 2520 | Cn1cc(/C=C2\Oc3ccc(NC(=O)Nc4ccc(Cl)nc4)cc3C2=O)c2c(N3CC4CCC(C3)O4)ccnc21
109 | 276 | Cn1cc(/C=C2\Oc3cccc(O)c3C2=O)c2c(-c3ccc(C4=NCCCO4)cc3)ccnc21
381 | 2090 | Cn1cc(/C=C2\Oc3cccc(O)c3C2=O)c2c(-c3ccc[nH]3)ccnc21
38 | 106 | CN(C)S(=O)(=O)c1ccc(-c2ccnc3c2c(/C=C2\Oc4cccc(O)c4C2=O)cn3C)cc1
4230 | 6830 | CN(C)C(=O)CN(C)C(=O)C1CCN(c2ccnc3c2c(C=C2Oc4ccc(NC(=O)Nc5cccnc5)cc4C2=O)cn3C)CC1
52 | 157 | COc1ccc(-c2ccnc3c2c(/C=C2\Oc4cc(O)cc(O)c4C2=O)cn3C)cc1
183 | 139 | Cn1cc(/C=C2\Oc3cc(O)cc(O)c3C2=O)c2c(-c3ccc(OC(F)(F)F)cc3)ccnc21

Structure (SMILES) | IC50 (PIK3CA (human)) [nM] | IC50 (PIK3CG (human)) [nM]
Cn1cc(/C=C2\Oc3cccc(O)c3C2=O)c2c(-c3ccc(C(=O)N4CCOCC4)cc3)ccnc21 | 49 | 54
